How the values were obtained:
[1] = biological target: T1, bovine progesterone receptor (Bos taurus, UniProt F1N712); assay: Progesterone receptor binding assay (CEREP, 3H-R5020 ligand, uterus tissue); conditions: bovine PR; 3H-R5020 as ligand, uterus tissue as receptor source; read-out: Progesterone Receptor binding (pKi) (converted)
T1 construct: uterus tissue as the source of progesterone receptor; tissue CEREP Progesterone receptor-814; host or cells: bovine uterus tissue (the cited method, Hurd & Moudgil 1988, used calf uterus)
T1 sequence (F1N712 1-914): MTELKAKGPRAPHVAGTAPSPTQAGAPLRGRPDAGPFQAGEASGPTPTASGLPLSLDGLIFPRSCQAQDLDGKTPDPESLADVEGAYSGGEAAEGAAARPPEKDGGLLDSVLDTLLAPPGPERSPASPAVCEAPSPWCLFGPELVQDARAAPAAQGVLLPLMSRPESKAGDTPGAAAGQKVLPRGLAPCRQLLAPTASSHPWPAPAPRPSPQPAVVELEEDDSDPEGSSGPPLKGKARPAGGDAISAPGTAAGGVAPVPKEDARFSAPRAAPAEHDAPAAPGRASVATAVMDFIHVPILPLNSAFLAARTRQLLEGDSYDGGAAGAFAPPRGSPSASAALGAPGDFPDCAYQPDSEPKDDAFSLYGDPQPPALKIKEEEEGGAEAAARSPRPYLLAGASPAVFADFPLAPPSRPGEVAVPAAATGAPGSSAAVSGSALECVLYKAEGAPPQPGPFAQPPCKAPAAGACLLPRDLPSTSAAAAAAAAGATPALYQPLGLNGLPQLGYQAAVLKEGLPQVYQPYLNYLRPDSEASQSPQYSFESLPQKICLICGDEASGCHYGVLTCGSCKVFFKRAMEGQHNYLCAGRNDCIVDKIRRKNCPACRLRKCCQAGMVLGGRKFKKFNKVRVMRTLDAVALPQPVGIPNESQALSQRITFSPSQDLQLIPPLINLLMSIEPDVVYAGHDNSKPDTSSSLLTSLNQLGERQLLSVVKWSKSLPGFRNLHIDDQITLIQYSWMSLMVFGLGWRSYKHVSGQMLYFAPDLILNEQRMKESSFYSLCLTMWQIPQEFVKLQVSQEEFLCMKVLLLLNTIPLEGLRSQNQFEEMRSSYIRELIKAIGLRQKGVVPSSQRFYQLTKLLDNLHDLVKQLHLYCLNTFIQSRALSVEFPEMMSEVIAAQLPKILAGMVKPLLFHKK
Procedure: The progesterone receptor (PR) binding assays were performed at CEREP (Celle I'Evescault, France). The binding to the bovine progesterone receptor (Assay Cat No: Progesterone receptor-814) was measured using 3H-R5020 as ligand and uterus tissue as the source of progesterone receptor. The assay was performed as described by Hurd & Moudgil [1988]. […] The results of the receptor binding assay are presented as the individual pKi values for the bovine PR which were determined by measuring the binding activity for a concentration range of each compound.

[2] = tested on: progesterone receptor (alkaline phosphatase expression in T47D human breast carcinoma cells); assay: Progesterone-dependent alkaline phosphatase expression assay (AP assay), agonistic and antagonistic mode; assay type: cell-based; conditions: for inhibition at 0.1 µM: 100 nM compound, inhibition of alkaline phosphatase induction by 1 nM Dydrogesterone, read-out: PI [100 nM] (% inhibition); for activation at 0.1 µM: 48 h, 100 nM compound alone, alkaline phosphatase induction, 100% = 1 nM Dydrogesterone, read-out: PS [100 nM] (% stimulation); for IC50: antagonistic potency against 1 nM Dydrogesterone; for EC50: agonistic potency
Procedure: The progesterone-dependent modulation of alkaline phosphatase expression was examined using T47D human breast carcinoma cells [Keydar et al., 1979]. The assay was performed as previously described by Di Lorenzo et al. (1991) with the modification of using Dydrogesterone as comparative progestin to determine the antagonistic and agonistic activity.
The cell line was purchased from CLS Cell Lines Service (Hildastrasse 21, D-69214 Eppelheim, Germany).
In brief, the cells were plated in 96-well plates at 40,000 cells/well using the following growth medium: RPMI 1640 with: 10% FBS, 1 mM Sodium Pyruvat MEM, 10 mM Hepes, 0.01 mg/ml Bovine insulin, and 25 μg/ml Gentamycin. After 24 h of cultivation, the growth medium was replaced with medium containing 2% fetal bovine serum and the test compounds were added to each well to achieve the appropriate compound concentration: For determination of agonistic activity only the test compounds were added; for measurement of antagonistic activity the test compounds and additionally Dydrogesterone as standard progesterone agonist was added to a final concentration of 1 nM. After 48 h of cultivation, the medium was removed and the cells were washed with 200 μl of Dulbecco's phosphate-buffered saline without calcium and magnesium (PBS(−)).
Then the cells were fixed with 3.7% formaldehyde in phosphate-buffered saline for 15 min at 22° C. After washing the cells with PBS, 100 μl of a […] (pNPP) solution (pNPP Liquid Substrate System; Sigma) was added to each well and incubated for 2 h at room temperature protected from light. The reaction was stopped with 100 μl 1N NaOH and the absorbance was measured with a spectrophotometer (Victor, Perkin Elmer) at 405 nm.
The results are expressed as alkaline phosphatase induction (as 100% with 1 nM Dydrogesterone) or inhibition (against alkaline phosphatase induction by 1 nM Dydrogesterone) at a certain concentration of test compound.
Calculations: % stimulation=(effect compound−basal)/(effect dydro 1 nM−basal)*100 % inhibition of 1 nM Dydro=100*{1−[(effect compound·basal)/(effect dydro 1 nM·basal)]}
For each compound the % inhibition (PI) and % stimulation (PS), respectively, at a compound concentration of 100 nM was determined. For selected compounds, the corresponding values were measured for several different concentrations, and subsequently were plotted against the concentration of the test compound, and used to calculate the IC50 value (for the antagonistic potency; the IC50 value is the concentration (nM), required to reduce the maximal response by 50%) and EC50 values (for the agonistic potency; the EC50 value is the effective concentration (nM) that produced 50% of the maximum response), respectively.

cycling guinea pigs = assay: Guinea pig model (luteolysis and uterine PR expression in cycling guinea pigs); assay type: in vivo; conditions: 10mg/kg s.c. once daily on days 10-17 of the cycle; FIG. 1
Text: An assay how to assess the progesterone antagonists (PAs) and progesterone receptor modulators (PRMs) with respect to PR agonistic and antagonistic activities in vivo is described by Elger et al [2000] and within WO 04/014935 using cycling guinea pigs. In this assay, pure PR antagonists inhibit luteolysis at the end of the ovarian cycle, whereas PR agonist and SPRMs support luteolysis, i.e. this is a very sensitive in vivo method to reveal residual agonistic activity of SPRMs. Inhibition of luteolysis is reflected by elevated serum progesterone levels at day 10-17 and inhibition of uterine prostaglandin F2α, as well as by certain histological characteristics in uterus and ovary, such as increased expression of progesterone receptors and decreased glandular differentiation in the uterus, as well as persistence of large intact corpora lutea up to day 18.
Adult female guinea pigs (strain Dunkin Hartley, Crl:HA; body weight 500-700 g) are purchased from Charles River (Sulzfeld, Germany). Blood samples are drawn from the Vena saphena three times a week to monitor ovarian cycles by determination of progesterone levels. […]
Antiluteolytic activity is evaluated by assessment of serum progesterone profiles throughout the treatment period from day 10 to day 17 (FIG. 1).
Antiprogestational effects on the uterus are assessed by determination of the degree of PR expression. […]

Q: Which Ki [1] does the source give for CC(=O)[C@H]1CC[C@H]2[C@@H]3C=CC4=CC(=O)CC[C@@]4(C)[C@@H]3CC[C@]12CCCc1ccc(/C=N/O)cc1 [No. 2] here?
A: The Ki was 200 nM.

Q: And the inhibition at 0.1 µM [2]?
A: The inhibition at 0.1 µM was 77%.

Q: And the activation at 0.1 µM [2]?
A: Its activation at 0.1 µM is 10%.

Q: What about the IC50 [2] of the same compound?
A: Its IC50 is 20 nM.

Q: How did the Ki [1] turn out when CCNC(=O)O/N=C/c1ccc(CCC[C@]23CC[C@@H]4[C@@H](C=CC5=CC(=O)CC[C@]54C)[C@@H]2CC[C@]3(OC(=O)OCC)C(C)=O)cc1 [No. 6] was run?
A: The Ki was 501 nM.

Q: What about the inhibition at 0.1 µM [2] of the same compound?
A: The inhibition at 0.1 µM was 32%.

Q: And the activation at 0.1 µM [2]?
A: Its activation at 0.1 µM is 60%.

Q: And the EC50 [2]?
A: Its EC50 is 50.1 nM.

Q: For CC(=O)[C@H]1CC[C@H]2[C@@H]3C=CC4=CC(=O)CC[C@@]4(C)[C@@H]3CC[C@]12CCCc1ccc(C(N)=O)cc1 [No. 13], which Ki [1] is on record?
A: The Ki was 200 nM.

Q: What about the inhibition at 0.1 µM [2] of the same compound?
A: The inhibition at 0.1 µM was 79%.

Q: And the activation at 0.1 µM [2]?
A: Its activation at 0.1 µM is 7%.

Q: And the IC50 [2]?
A: The IC50 was 50.1 nM.

Q: For CC#C[C@]1(O)CC[C@H]2[C@@H]3CCC4=CC(=O)CCC4=C3[C@@H](c3ccc(N(C)C)cc3)C[C@@]21C [mifepristone], which “antiluteolytic activity (serum progesterone levels day 10 to day 17)” value (cycling guinea pigs) is on record?
A: The value was “do not decline”.

Q: Which results are given for CCNC(=O)O/N=C/c1ccc(CCC[C@]23CC[C@@H]4[C@@H](CCC5=CC(=O)CC[C@]54C)[C@@H]2CC[C@@H]3C(C)=O)cc1 [No. 4]?
A: Ki [1]: 501 nM; inhibition at 0.1 µM [2]: 51%; activation at 0.1 µM [2]: 4%; IC50 [2]: 50.1 nM

Q: For CC(=O)[C@H]1CC[C@H]2[C@@H]3C=CC4=CC(=O)CC[C@@]4(C)[C@@H]3CC[C@]12C [dydrogesterone, (9β,10α)-Pregna-4,6-diene-3,20-dione], which “antiluteolytic activity (serum progesterone levels day 10 to day 17)” value (cycling guinea pigs) is on record?
A: The value was “progesterone levels decrease”.

Q: What does the source list for COc1cc(CCC[C@]23CC[C@@H]4[C@@H](C=CC5=CC(=O)CC[C@]54C)[C@@H]2CC[C@@H]3C(C)=O)cc(OC)c1 [compound 29]?
A: inhibition at 0.1 µM [2]: 69%; activation at 0.1 µM [2]: 15%; EC50 [2]: 15.8 nM

Q: Which results are given for CC(=O)[C@H]1CC[C@H]2[C@@H]3C=CC4=CC(=O)CC[C@@]4(C)[C@@H]3CC[C@]12CCCc1ccccc1 [compound 17]?
A: inhibition at 0.1 µM [2]: 79%; activation at 0.1 µM [2]: 8%; EC50 [2]: 25.1 nM

Q: How did the inhibition at 0.1 µM [2] turn out when COc1cccc(CCC[C@]23CC[C@@H]4[C@@H](C=CC5=CC(=O)CC[C@]54C)[C@@H]2CC[C@@H]3C(C)=O)c1 [compound 25] was run?
A: Its inhibition at 0.1 µM is 73%.

Q: What about the activation at 0.1 µM [2] of the same compound?
A: Its activation at 0.1 µM is 12%.

Q: What about the EC50 [2] of the same compound?
A: Its EC50 is 15.8 nM.

Q: What does the source list for CCNC(=O)O/N=C/c1ccc(CCC[C@]23CC[C@@H]4[C@@H](C=CC5=CC(=O)CC[C@]54C)[C@@H]2CC[C@@H]3C(C)=O)cc1 [No. 5]?
A: Ki [1]: 200 nM; inhibition at 0.1 µM [2]: 52%; activation at 0.1 µM [2]: 35%; IC50 [2]: 5.01 nM

Q: How did the Ki [1] turn out when CC(=O)[C@H]1CC[C@H]2[C@@H]3CCC4=CC(=O)CC[C@@]4(C)[C@@H]3CC[C@]12CCCc1ccc(/C=N/O)cc1 [No. 1] was run?
A: The Ki was 1000 nM.

Q: And the inhibition at 0.1 µM [2]?
A: Its inhibition at 0.1 µM is 60%.

Q: What about the activation at 0.1 µM [2] of the same compound?
A: Its activation at 0.1 µM is 1%.

Q: And the IC50 [2]?
A: Its IC50 is 31.6 nM.

Source: patent publication US20070082876A1, “Novel C18 modified retrosteroids as progesterone receptor modulator compounds” (Solvay Pharmaceuticals GmbH, priority 2005, published 2007)
